pKi: −log10 of the molar value.
Assays:
[1] = target: T1, recombinant human ALK5 (TGF-βR1) protein (Homo sapiens, UniProt P36897); experiment: Biochemical ALK5 (TGF-βR1) assay to measure pKi (LANCE Ultra ULight kinase assay); conditions: apparent pKi, converted from pIC50 by Cheng-Prusoff
T1 construct: purchased Life Technologies PR9075A
T1 sequence (P36897 34-503): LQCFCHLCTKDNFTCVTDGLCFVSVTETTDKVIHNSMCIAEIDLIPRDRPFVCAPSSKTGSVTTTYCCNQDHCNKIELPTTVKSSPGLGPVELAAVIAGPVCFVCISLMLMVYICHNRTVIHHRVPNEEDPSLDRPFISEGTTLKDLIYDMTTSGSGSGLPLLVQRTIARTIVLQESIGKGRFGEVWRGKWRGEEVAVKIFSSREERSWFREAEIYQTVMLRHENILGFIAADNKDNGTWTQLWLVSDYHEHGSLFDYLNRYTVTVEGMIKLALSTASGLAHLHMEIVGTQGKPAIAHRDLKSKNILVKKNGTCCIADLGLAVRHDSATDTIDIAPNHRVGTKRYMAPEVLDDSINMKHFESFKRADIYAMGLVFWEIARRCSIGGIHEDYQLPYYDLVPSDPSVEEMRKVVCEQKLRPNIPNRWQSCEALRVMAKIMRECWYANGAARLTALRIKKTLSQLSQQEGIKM
Summary of the method: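 Enzyme was preincubated with compound for 60 min at room temperature, then ATP (added from a 125 μM 5× stock with 2 mM DTT) started a 60 min reaction at 37 °C. EDTA plus Eu-anti-phospho-Topo2α (Thr1342) antibody stopped it; TR-FRET pIC50 values were converted to pKi by Cheng-Prusoff.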

[2] = test system: TGF-β-stimulated SMAD3 phosphorylation in BEAS-2B cells; experiment: Cellular ALK5 potency assay, inhibition of TGF-β stimulated pSMAD3 formation in BEAS-2B cells; assay type: cell-based; conditions: Homo sapiens, pSMAD3, TGF-β 10 ng/mL, read-out: BEAS2B pIC50 (converted)
Summary of the method: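 BEAS-2B cells, HBSS/25 mM HEPES/1% BSA buffer; cpd 1 h, 37 °C; TGF-β 10 ng/mL final, 30 min; lysis, AlphaLISA pSMAD3 read next day. pIC50 vs stimulated no-compound baseline.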

SMILES	pKi [1]	IC50 [2]
Cc1cccc(-c2nccc(Nc3ccnc(Nc4ccc(N5CCC(C(=O)O[C@@H]6CCNC6)CC5)cc4)n3)n2)n1 [Compound 337, [(3R)-pyrrolidin-3-yl] 1-[4-[[4-[[2-(6-methyl-2-pyridyl)pyrimidin-4-yl]amino]pyrimidin-2-yl]amino]phenyl]piperidine-4-carboxylate]	9.50 to 10.40	25.1 to 158 nM
Cc1cccc(-c2nccc(Nc3ccnc(Nc4ncc(C(=O)OCC5CNC5)s4)n3)n2)n1 [Compound 338, azetidin-3-ylmethyl 2-((4-((2-(6-methylpyridin-2-yl)pyrimidin-4-yl)amino)pyrimidin-2-yl)amino)thiazole-5-carboxylate]	7.50 to 8.40	200 to 1260 nM
Cc1cccc(-c2nccc(Nc3ccnc(Nc4nc(CN5CCC[C@@H](C(=O)O)C5)cs4)n3)n2)n1 [Compound 339, (3R)-1-[[2-[[4-[[2-(6-methyl-2-pyridyl)pyrimidin-4-yl]amino]pyrimidin-2-yl]amino]thiazol-4-yl]methyl]piperidine-3-carboxylic acid]	8.50 to 9.40	200 to 1260 nM
Cc1cccc(-c2nc(Nc3ccnc(Nc4ccc(N5CCOCC5)cc4)n3)c3nn[nH]c3n2)n1 [Compound 340, N4-[5-(6-methyl-2-pyridyl)-3H-triazolo[4,5-d]pyrimidin-7-yl]-N2-(4-morpholinophenyl)pyrimidine-2,4-diamine]	9.50 to 10.40	200 to 1260 nM
Cc1cccc(-c2nccc(Nc3ccnc(Nc4ccc(CN5CCC[C@@H](C(=O)O[C@@H]6CCN(C)C6)C5)cc4)n3)n2)n1 [Compound 341, [(3R)-1-methylpyrrolidin-3-yl] (3R)-1-[[4-[[4-[[2-(6-methyl-2-pyridyl)pyrimidin-4-yl]amino]pyrimidin-2-yl]amino]phenyl]methyl] piperidine-3-carboxylate]	9.50 to 10.40	25.1 to 158 nM
Cc1cccc(-c2nccc(Nc3ccnc(Nc4ccc(NC[C@@H]5CCCN5)cc4)n3)n2)n1 [Compound 342, N4-[2-(6-methyl-2-pyridyl)pyrimidin-4-yl]-N2-[4-[[(2S)-pyrrolidin-2-yl]methylamino]phenyl] pyrimidine-2,4-diamine]	9.50 to 10.40	25.1 to 158 nM
Cc1cccc(-c2nccc(Nc3ccnc(Nc4ccc(N5CCC(N)CC5)c(F)c4)n3)n2)n1 [Compound 343, N2-[4-(4-amino-1-piperidyl)-3-fluoro-phenyl]-N4-[2-(6-methyl-2-pyridyl)pyrimidin-4-yl]pyrimidine-2,4-diamine]	≥ 10.50	25.1 to 158 nM
Cc1cccc(-c2nccc(Nc3ccnc(Nc4ccc(CN5C[C@@H](C)NC[C@@H]5C)cc4)n3)n2)n1 [Compound 344, N2-[4-[[(2S,5R)-2,5-dimethylpiperazin-1-yl]methyl]phenyl]-N4-[2-(6-methyl-2-pyridyl)pyrimidin-4-yl]pyrimidine-2,4-diamine]	9.50 to 10.40	25.1 to 158 nM
Cc1cccc(-c2nccc(Nc3ccnc(Nc4cc(C(=O)O[C@H]5CCN(C)C5)cs4)n3)n2)n1 [Compound 345, [(3S)-1-methylpyrrolidin-3-yl] 5-[[4-[[2-(6-methyl-2-pyridyl)pyrimidin-4-yl]amino]pyrimidin-2-yl]amino]thiophene-3-carboxylate]	9.50 to 10.40	25.1 to 158 nM
Cc1cccc(-c2nccc(Nc3ccnc(Nc4ccc(NCCN5CCN(C(C)C)CC5)cc4)n3)n2)n1 [Compound 346, N2-[4-[2-(4-isopropylpiperazin-1-yl)ethylamino]phenyl]-N4-[2-(6-methyl-2-pyridyl)pyrimidin-4-yl]pyrimidine-2,4-diamine]	9.50 to 10.40	25.1 to 158 nM
CNCCn1cc(-c2ccc(Nc3nccc(Nc4ccnc(-c5cccc(C)n5)n4)n3)cc2)cn1 [Compound 347, N2-(4-(1-(2-(methylamino)ethyl)-1H-pyrazol-4-yl)phenyl)-N4-(2-(6-methylpyridin-2-yl)pyrimidin-4-yl)pyrimidine-2,4-diamine]	9.50 to 10.40	25.1 to 158 nM

— US20230399312A1, “SUBSTITUTED PYRIMIDINES AND METHODS OF USE” (THERAVANCE BIOPHARMA R&D IP, LLC, priority 2020, published 2023)
